Laboratory results as given in ChEMBL document CHEMBL2157958, “4-Isoxazolyl-1,4-dihydropyridines exhibit binding at the multidrug-resistance transporter” (Bioorg Med Chem, 2012).

Experiments:
[1] = Binding affinity at VGCC
[2] = target: MDR1 (P-glycoprotein, ABCB1) (Homo sapiens, UniProt P08183); experiment: Inhibition of MDR1 in human Caco2 cells assessed as calcein accumulation after 30 mins by fluorescence assay; assay type: cell-based; set-up: concentration or dose not given beside the values; details: Caco-2 cells
MDR1 (P-glycoprotein, ABCB1), sequence (P08183 whole entry): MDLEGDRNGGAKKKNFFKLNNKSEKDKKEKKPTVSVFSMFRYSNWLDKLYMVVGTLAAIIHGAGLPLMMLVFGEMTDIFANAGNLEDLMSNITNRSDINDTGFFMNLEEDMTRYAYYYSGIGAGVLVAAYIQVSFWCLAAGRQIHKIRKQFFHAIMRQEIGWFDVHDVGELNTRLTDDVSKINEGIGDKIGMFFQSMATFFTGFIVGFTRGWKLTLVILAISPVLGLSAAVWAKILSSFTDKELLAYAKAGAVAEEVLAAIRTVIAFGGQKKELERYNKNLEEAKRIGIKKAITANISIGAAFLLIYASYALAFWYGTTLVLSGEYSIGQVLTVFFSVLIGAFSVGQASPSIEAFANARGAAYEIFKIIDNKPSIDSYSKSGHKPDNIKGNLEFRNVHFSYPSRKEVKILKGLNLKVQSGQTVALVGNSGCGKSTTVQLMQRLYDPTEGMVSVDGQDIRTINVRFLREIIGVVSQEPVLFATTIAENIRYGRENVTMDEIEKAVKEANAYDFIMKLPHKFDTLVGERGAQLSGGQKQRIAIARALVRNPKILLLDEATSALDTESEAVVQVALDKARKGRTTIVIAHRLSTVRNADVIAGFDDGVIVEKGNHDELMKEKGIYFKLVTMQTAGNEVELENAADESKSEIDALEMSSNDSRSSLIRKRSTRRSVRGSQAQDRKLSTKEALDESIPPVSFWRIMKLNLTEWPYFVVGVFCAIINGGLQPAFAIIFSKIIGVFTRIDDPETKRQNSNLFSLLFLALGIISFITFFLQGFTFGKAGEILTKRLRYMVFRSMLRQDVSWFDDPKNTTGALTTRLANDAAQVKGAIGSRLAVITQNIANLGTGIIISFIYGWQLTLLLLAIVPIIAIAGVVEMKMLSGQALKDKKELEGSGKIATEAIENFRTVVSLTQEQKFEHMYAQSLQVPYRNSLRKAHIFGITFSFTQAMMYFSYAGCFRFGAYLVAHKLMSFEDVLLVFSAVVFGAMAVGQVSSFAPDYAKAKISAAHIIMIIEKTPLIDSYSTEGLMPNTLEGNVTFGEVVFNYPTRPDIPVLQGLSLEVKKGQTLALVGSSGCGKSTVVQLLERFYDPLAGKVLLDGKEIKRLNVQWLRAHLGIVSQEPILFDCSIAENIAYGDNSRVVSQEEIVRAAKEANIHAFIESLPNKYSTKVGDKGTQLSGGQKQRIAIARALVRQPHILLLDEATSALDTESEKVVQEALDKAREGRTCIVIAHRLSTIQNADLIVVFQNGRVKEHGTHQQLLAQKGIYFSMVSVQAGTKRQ

[3] = Binding affinity at VGCC by patch clamp method

SMILES	Ki [1] [nM]	inhibition at 0.5 h [2] [%]	Activity [3] [µM]
CCOC(=O)C1=C(C)N=C(C)/C(=C(/O)OCC)C1c1c(-c2ccccc2)noc1CCc1ccccc1 (stereo unspecified)	55.3	27.6	–
CCOC(=O)C1=C(C)NC(C)=C(C(=O)OCC)C1c1c(C)noc1C(C)Cc1cccc2ccccc12 (stereo unspecified)	–	38.3	–
CCOC(=O)C1=C(C)N=C(C)/C(=C(/O)OCC)C1c1c(-c2cc(Cl)ccc2OC)noc1C (stereo unspecified)	–	15	6.86
CCOC(=O)C1=C(C)N=C(C)/C(=C(/O)OCC)C1c1c(-c2ccccc2OC)noc1C (stereo unspecified)	–	32.8	17.1
CCOC(=O)C1=C(C)N=C(C)/C(=C(/O)OCC)C1c1c(-c2cccc(Cl)c2)noc1C (stereo unspecified)	–	26.8	1.98
CCOC(=O)C1=C(C)N=C(C)/C(=C(/O)OCC)C1c1c(-c2ccccc2)noc1C (stereo unspecified)	13.9	48.9	–
CCOC(=O)C1=C(C)N=C(C)/C(=C(/O)OCC)C1c1c(C)noc1CCc1ccc(-c2ccccc2)cc1 (stereo unspecified)	8.69	18.6	–
CCOC(=O)C1=C(C)N=C(C)/C(=C(/O)OCC)C1c1c(-c2ccccc2)noc1C(C)C (stereo unspecified)	–	38.4	–
CCOC(=O)C1=C(C)N=C(C)/C(=C(/O)OCC)C1c1c(-c2ccc(Cl)cc2)noc1C (stereo unspecified)	–	11.7	–
CCOC(=O)C1=C(C)N=C(C)/C(=C(/O)OCC)C1c1c(C)noc1CCc1cccc2ccccc12 (stereo unspecified)	4.1	19	0.47
CCOC(=O)C1=C(C)NC(C)=C(C(=O)OCC)C1c1c(C)noc1C(C)Cc1cccc(Br)c1 (racemic)	–	61.2	–
CCOC(=O)C1=C(C)N=C(C)/C(=C(/O)OCC)C1c1c(-c2ccccc2Cl)noc1C (stereo unspecified)	–	10.9	9.68
